The target of this test is T1, human PAH with the R408W mutation (Homo sapiens, UniProt P00439, R408W).
T1 construct: expressed in transfected cells
T1 sequence (P00439 1-452 R408W): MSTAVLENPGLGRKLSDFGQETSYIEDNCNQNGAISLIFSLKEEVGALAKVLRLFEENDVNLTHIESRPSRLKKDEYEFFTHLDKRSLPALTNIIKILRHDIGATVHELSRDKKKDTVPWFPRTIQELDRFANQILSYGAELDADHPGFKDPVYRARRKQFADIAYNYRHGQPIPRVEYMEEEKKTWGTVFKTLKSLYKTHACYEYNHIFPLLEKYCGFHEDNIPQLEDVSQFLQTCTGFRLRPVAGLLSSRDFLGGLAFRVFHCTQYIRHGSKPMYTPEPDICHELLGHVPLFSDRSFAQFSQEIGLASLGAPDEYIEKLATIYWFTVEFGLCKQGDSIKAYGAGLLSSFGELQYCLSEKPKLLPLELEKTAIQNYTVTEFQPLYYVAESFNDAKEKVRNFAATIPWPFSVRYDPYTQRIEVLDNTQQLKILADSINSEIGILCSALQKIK
The test can be described thus: Cell Based Phenylalanine Flux Assay.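 Further: after compound treatment, cells received sepiapterin plus isotope-labelled Phenylalanine for 4 hours, then labelled Tyrosine in the medium was quantified, 10-point 2-fold dilution series run in duplicate.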 The note with it: A375 cells expressing human R408W PAH; 24 hrs compound incubation; 13C-Tyrosine by LC-MS; average where tested multiple times; read-out: AC50.

The values that follow come from patent US20230365592A1 (Agios Pharmaceuticals, Inc., priority 2022, published 2023).

The AC50 is the concentration giving half of the maximal activity seen. `Cc1nc(C(C)(C)F)oc1C(=O)N1CCc2[nH]cnc2[C@@H]1c1cc2ccccn2n1` [Example 1251, (R)-(2-(2-fluoropropan-2-yl)-4-methyloxazol-5-yl)(4-(pyrazolo[1,5-a]pyridin-2-yl)-6,7-dihydro-1H-imidazo[4,5-c]pyridin-5(4H)-yl)methanone]: the AC50 lay within 500 to 1000 nM.

Take `Cc1nc(C(C)(C)F)oc1C(=O)N1CCc2[nH]cnc2[C@H]1c1cc2cccc(C)n2n1` [Example 1252, (S)-(2-(2-fluoropropan-2-yl)-4-methyloxazol-5-yl)(4-(7-methylpyrazolo[1,5-a]pyridin-2-yl)-6,7-dihydro-1H-imidazo[4,5-c]pyridin-5(4H)-yl)methanone]: the AC50 was less than 500 nM.

On to `Cc1nc(C(C)(C)F)oc1C(=O)N1CCc2[nH]cnc2[C@@H]1c1cc2cccc(C)n2n1` [Example 1253, (R)-(2-(2-fluoropropan-2-yl)-4-methyloxazol-5-yl)(4-(7-methylpyrazolo[1,5-a]pyridin-2-yl)-6,7-dihydro-1H-imidazo[4,5-c]pyridin-5(4H)-yl)methanone], for which the AC50 was 1000 to 5000 nM.

For `CC(C)(F)c1nc(C(F)F)c(C(=O)N2CCc3[nH]cnc3[C@@H]2c2cc3ccccn3n2)o1` [Example 1254, (R)-(4-(difluoromethyl)-2-(2-fluoropropan-2-yl)oxazol-5-yl)(4-(pyrazolo[1,5-a]pyridin-2-yl)-6,7-dihydro-1H-imidazo[4,5-c]pyridin-5(4H)-yl)methanone], the AC50 is 1000 to 5000 nM.

Turning to `CC(C)(F)c1nc(C(F)F)c(C(=O)N2CCc3[nH]cnc3[C@H]2c2cc3ccccn3n2)o1` [Example 1255, (S)-(4-(difluoromethyl)-2-(2-fluoropropan-2-yl)oxazol-5-yl)(4-(pyrazolo[1,5-a]pyridin-2-yl)-6,7-dihydro-1H-imidazo[4,5-c]pyridin-5(4H)-yl)methanone], the half-maximal activity concentration (AC50) is less than 500 nM.

As for `O=C(c1nnc(-c2ccncn2)o1)N1CCc2[nH]cnc2[C@@H]1c1cc2c(F)cccn2n1` [Example 1259, (R)-(4-(4-fluoropyrazolo[1,5-a]pyridin-2-yl)-6,7-dihydro-1H-imidazo[4,5-c]pyridin-5(4H)-yl)(5-(pyrimidin-4-yl)-1,3,4-oxadiazol-2-yl)methanone], the AC50 is 1000 to 5000 nM.

For `Cc1nc(C(C)(C)F)oc1C(=O)N1CCc2[nH]cnc2[C@H]1c1cc2c(C)cccn2n1` [Example 1260, (S)-(2-(2-fluoropropan-2-yl)-4-methyloxazol-5-yl)(4-(4-methylpyrazolo[1,5-a]pyridin-2-yl)-6,7-dihydro-1H-imidazo[4,5-c]pyridin-5(4H)-yl)methanone], the AC50 was less than 500 nM.

For the compound `Cc1nc(C(C)(C)F)oc1C(=O)N1CCc2[nH]cnc2[C@H]1c1cc2c(C(F)(F)F)cccn2n1` [Example 1262, (S)-(2-(2-fluoropropan-2-yl)-4-methyloxazol-5-yl)(4-(4-(trifluoromethyl)pyrazolo[1,5-a]pyridin-2-yl)-6,7-dihydro-1H-imidazo[4,5-c]pyridin-5(4H)-yl)methanone], the AC50 is less than 500 nM.

Regarding `Cc1nc(C(C)(C)F)oc1C(=O)N1CCc2[nH]cnc2[C@H]1c1cc2cccc(Cl)n2n1` [Example 1266, (S)-(4-(7-chloropyrazolo[1,5-a]pyridin-2-yl)-6,7-dihydro-1H-imidazo[4,5-c]pyridin-5(4H)-yl)(2-(2-fluoropropan-2-yl)-4-methyloxazol-5-yl)methanone], the AC50 is less than 500 nM.

`O=C(c1oc(C2(O)CC2)nc1C(F)F)N1CCc2[nH]cnc2[C@H]1c1cc2cccc(C(F)(F)F)n2n1` [Example 1268, (S)-(4-(difluoromethyl)-2-(1-hydroxycyclopropyl)oxazol-5-yl)(4-(7-(trifluoromethyl)pyrazolo[1,5-a]pyridin-2-yl)-6,7-dihydro-1H-imidazo[4,5-c]pyridin-5(4H)-yl)methanone]: the AC50 was less than 500 nM.

As to `O=C(c1cnn2ccccc12)N1CCc2[nH]cnc2[C@H]1c1cc2c(C(F)(F)F)cccn2n1` [Example 1270, (S)-pyrazolo[1,5-a]pyridin-3-yl(4-(4-(trifluoromethyl)pyrazolo[1,5-a]pyridin-2-yl)-6,7-dihydro-1H-imidazo[4,5-c]pyridin-5(4H)-yl)methanone], the AC50 is less than 500 nM.

As for `O=C(c1cnn2ccccc12)N1CCc2[nH]cnc2[C@H]1c1cc2c(Cl)cccn2n1` [Example 1272, (S)-(4-(4-chloropyrazolo[1,5-a]pyridin-2-yl)-6,7-dihydro-1H-imidazo[4,5-c]pyridin-5(4H)-yl)(pyrazolo[1,5-a]pyridin-3-yl)methanone], the AC50 was less than 500 nM.

For `Cc1nc(C(C)(C)F)oc1C(=O)N1CCc2[nH]cnc2[C@@H]1c1cc2c(F)cccn2n1` [Example 1274, (R)-(2-(2-fluoropropan-2-yl)-4-methyloxazol-5-yl)(4-(4-fluoropyrazolo[1,5-a]pyridin-2-yl)-6,7-dihydro-1H-imidazo[4,5-c]pyridin-5(4H)-yl)methanone], the AC50 was less than 500 nM.

Turning to `Cc1nc(C(C)(C)F)oc1C(=O)N1CCc2[nH]cnc2[C@H]1c1cc2c(F)cccn2n1` [Example 1275, (S)-(2-(2-fluoropropan-2-yl)-4-methyloxazol-5-yl)(4-(4-fluoropyrazolo[1,5-a]pyridin-2-yl)-6,7-dihydro-1H-imidazo[4,5-c]pyridin-5(4H)-yl)methanone], the AC50 is less than 500 nM.

Turning to `Cc1nc(C(C)(C)F)oc1C(=O)N1CCc2[nH]cnc2[C@H]1c1cc2c(Cl)cccn2n1` [Example 1276, (S)-(4-(4-chloropyrazolo[1,5-a]pyridin-2-yl)-6,7-dihydro-1H-imidazo[4,5-c]pyridin-5(4H)-yl)(2-(2-fluoropropan-2-yl)-4-methyloxazol-5-yl)methanone], the AC50 was less than 500 nM.

Take `Cc1nc(C(C)(C)F)oc1C(=O)N1CCc2[nH]cnc2[C@@H]1c1cc2c(Cl)cccn2n1` [Example 1277, (R)-(4-(4-chloropyrazolo[1,5-a]pyridin-2-yl)-6,7-dihydro-1H-imidazo[4,5-c]pyridin-5(4H)-yl)(2-(2-fluoropropan-2-yl)-4-methyloxazol-5-yl)methanone]: the AC50 was less than 500 nM.

Turning to `Cc1nc(C(C)(C)F)oc1C(=O)N1CCc2[nH]cnc2[C@H]1c1cc2cccc(F)n2n1` [Example 1278, (S)-(2-(2-fluoropropan-2-yl)-4-methyloxazol-5-yl)(4-(7-fluoropyrazolo[1,5-a]pyridin-2-yl)-6,7-dihydro-1H-imidazo[4,5-c]pyridin-5(4H)-yl)methanone], the AC50 is less than 500 nM.

On to `Cc1cccc2cc([C@H]3c4nc[nH]c4CCN3C(=O)c3oc(C4(O)CC4)nc3C(F)F)nn12` [Example 1281, (R)-(4-(difluoromethyl)-2-(1-hydroxycyclopropyl)oxazol-5-yl)(4-(7-methylpyrazolo[1,5-a]pyridin-2-yl)-6,7-dihydro-1H-imidazo[4,5-c]pyridin-5(4H)-yl)methanone], for which the AC50 was 1000 to 5000 nM.

For the compound `Cc1nnc(C(=O)N2CCc3[nH]cnc3[C@H]2c2cc3c(C(F)F)cccn3n2)o1` [Example 1283, (S)-(4-(4-(difluoromethyl)pyrazolo[1,5-a]pyridin-2-yl)-6,7-dihydro-1H-imidazo[4,5-c]pyridin-5(4H)-yl)(5-methyl-1,3,4-oxadiazol-2-yl)methanone], the AC50 is 500 to 1000 nM.

For the compound `CC1(c2nnc(C(=O)N3CCc4[nH]cnc4[C@H]3c3cc4ccccn4n3)o2)CC1` [Example 1284, (S)-(5-(1-methylcyclopropyl)-1,3,4-oxadiazol-2-yl)(4-(pyrazolo[1,5-a]pyridin-2-yl)-6,7-dihydro-1H-imidazo[4,5-c]pyridin-5(4H)-yl)methanone], the half-maximal activity concentration (AC50) is less than 500 nM.

Turning to `CC1(c2nnc(C(=O)N3CCc4[nH]cnc4[C@@H]3c3cc4ccccn4n3)o2)CC1` [Example 1285, (R)-(5-(1-methylcyclopropyl)-1,3,4-oxadiazol-2-yl)(4-(pyrazolo[1,5-a]pyridin-2-yl)-6,7-dihydro-1H-imidazo[4,5-c]pyridin-5(4H)-yl)methanone], the AC50 fell in the range of 1000 to 5000 nM.

Take `Cc1cccn2nc([C@@H]3c4nc[nH]c4CCN3C(=O)c3cnn4ccccc34)cc12` [Example 1286, (S)-(4-(4-methylpyrazolo[1,5-a]pyridin-2-yl)-6,7-dihydro-1H-imidazo[4,5-c]pyridin-5(4H)-yl)(pyrazolo[1,5-a]pyridin-3-yl)methanone]: the AC50 was less than 500 nM.

Take `Cc1cccn2nc([C@H]3c4nc[nH]c4CCN3C(=O)c3cnn4ccccc34)cc12` [Example 1287, (R)-(4-(4-methylpyrazolo[1,5-a]pyridin-2-yl)-6,7-dihydro-1H-imidazo[4,5-c]pyridin-5(4H)-yl)(pyrazolo[1,5-a]pyridin-3-yl)methanone]: the AC50 lay in the range of 500 to 1000 nM.

For `O=C(c1cnn2ccccc12)N1CCc2[nH]cnc2[C@@H]1c1cc2c(F)cccn2n1` [Example 1288, (R)-(4-(4-fluoropyrazolo[1,5-a]pyridin-2-yl)-6,7-dihydro-1H-imidazo[4,5-c]pyridin-5(4H)-yl)(pyrazolo[1,5-a]pyridin-3-yl)methanone], the AC50 was 500 to 1000 nM.

On to `O=C(c1cnn2ccccc12)N1CCc2[nH]cnc2[C@H]1c1cc2c(F)cccn2n1` [Example 1289, (S)-(4-(4-fluoropyrazolo[1,5-a]pyridin-2-yl)-6,7-dihydro-1H-imidazo[4,5-c]pyridin-5(4H)-yl)(pyrazolo[1,5-a]pyridin-3-yl)methanone], for which the AC50 was less than 500 nM.

Turning to `c1ccc(-c2nnc(N3CCc4[nH]cnc4[C@@H]3c3cc4ccccn4n3)o2)nc1` [Example 1290, (R)-2-(4-(pyrazolo[1,5-a]pyridin-2-yl)-6,7-dihydro-1H-imidazo[4,5-c]pyridin-5(4H)-yl)-5-(pyridin-2-yl)-1,3,4-oxadiazole], the AC50 was in the range of 1000 to 5000 nM.
